Like-named read-outs stand apart in the source and are kept apart here.
Assays:
[1] = tested on: Pseudomonas fluorescens; assay: Alternate Minimum Inhibitory Concentrations Test (Table 4), Ps.fl; format: cell-based; settings: Table 4 alternate test; for MIC: Pseudomonas fluorescens, read-out: MIC Ps.fl; for MIC Ps.fl (I = inactive): class symbol
Method: The compounds of Examples 1-8, 12-26, 28-33, 36-37, 39-42, 44-109, 111-114, and 116-120 were subjected also to the following alternate biocidal activity test procedures with the results as indicated in Table 4.
The MIC test measures the viability of Pseudomonas fluorescens inoculum in TSB when exposed for 72 hours to varying concentrations of test compound.
A 125 μl aliquot of 10,000 ppm test compound in acetone was added to 4.88 ml of TSB to provide a 250 ppm solution. From this solution, 100 μL was transferred to the first row of two microtiter plate columns. Both replicates and five additional compounds were all serially diluted 1:1 to a final concentration of 0.8 ppm in TSB.
Inoculation was accomplished by diluting a 24 hr Ps fl culture, four mls per 36 mls of phosphate buffer solution. A Dynatech autoinoculator was used to transfer 1.5 μl of this cell suspension to the microtiter plates. The plates were incubated at 30° C. for 3 days before the lowest concentration at which no growth occurs was recorded in the database.

[2] = tested on: Pseudoperonospora cubensis; assay: whole plant or invertebrate; format: in vivo; settings: Pseudoperonospora cubensis, in Cucumis sativus, 168 h; read-out: % Control CDM
[3] = tested on: Piricularia oryzae; assay: whole plant or invertebrate; format: in vivo; settings: Pyricularia oryzae
[4] = tested on: Pellicularia filamentosa (f. sp. sasiki); assay: whole plant or invertebrate; format: in vivo
[5] = tested on: Phytophthora infestans; assay: whole plant or invertebrate; format: in vivo; settings: Phytophthora infestans, in Solanum lycopersicum, 96 h
[6] = tested on: Puccinia recondita (f. sp. tritici Races PKB and PLD); assay: whole plant or invertebrate; format: in vivo; settings: Puccinia recondita, 240 h; read-out: % Control WLR
[7] = tested on: Erysiphe graminis (f. sp. tritici); assay: whole plant or invertebrate; format: in vivo; settings: Blumeria graminis; read-out: % Control WPM
[8] = 250 ppm to 0.8 ppm in TSB, 72 hours, 30° C.
[9] = read-out: % Control RB, application rate 200 ppm
[10] = read-out: % Control TLB, application rate 200 ppm

SMILES | MIC [1, 8] [µg/mL] | pest or weed control at 200 ppm [2] [%] | pest or weed control at 200 ppm [3, 9] [%] | pest or weed control at 200 ppm ([4]; 120 h, read-out: % Control RSB) [%] | pest or weed control at 200 ppm [5, 10] [%] | pest or weed control at 200 ppm [6] [%] | pest or weed control at 200 ppm ([5]; read-out: % Control TLB) [%] | pest or weed control at 200 ppm [7] [%] | also measured
CC(=O)S/C=C\C(=O)NC1CCCCCCCCCCC1 [Compound 90, N-cyclododecyl-cis-3-(acetylthio)acrylamide] | > 250 | 85 | 0 | 0 | 0 | 0 |  |  | pest or weed control at 50 ppm [7]: 0%
CCCCCCCCNC(=O)/C=C\SC(=O)c1c[nH]c2ccccc12 [Compound 77, N-octyl-cis-3-[(3-indole)carbonylthio]acrylamide] | > 250 | 85 | 90 | 0 |  | 80 | 90 | 0 | 
CCCCCCCCNC(=O)/C=C\SC(=O)CCc1ccccc1 [Compound 91, N-octyl-cis-3-[(3-phenylpropanoyl)thio]acrylamide] |  | 70 |  |  |  | 25 | 80 |  | MIC Ps.fl [1, 8]: > 250 Ppm; pest or weed control at 200 ppm ([3]; read-out: % Control RB): 70%; % Control RSB ([4]; in vivo): 0 % Control; pest or weed control at 12 ppm [7]: 85%
CCCCCCCCNC(=O)/C=C\SC(=O)CC1CC(C(C)=O)C1(C)C (stereo not drawn) [Compound 75] | > 250 | 0 | 50 |  |  | 50 |  | 0 | pest or weed control at 12 ppm ([4]; 120 h, read-out: % Control RSB): 0%; pest or weed control at 50 ppm ([5]; read-out: % Control TLB): 90%
CCCCCCCCNC(=O)/C=C\SC(=O)c1ccc(OCCCCCCC)cc1 [Compound 45, N-octyl-cis-3-[(4-heptoxybenzoyl)thio]acrylamide] | > 250 | 0 | 0 | 80 | 0 | 0 |  | 0 | 
C=CCCC(=O)S/C=C\C(=O)NCCCCCCCC [Compound 83, N-octyl-cis-3-[(4-pentenoyl)thio]acrylamide] | > 250 | 95 | 50 | 0 |  | 50 | 90 | 0 | 
CC/C=C/C(=O)S/C=C\C(=O)NCCCCCCCC [Compound 84, N-octyl-cis-3-[(trans-2-pentenoyl)thio]acrylamide] | > 250 | 0 | 0 | 0 |  | 50 | 90 | 0 | 
CCCCCCCCNC(=O)/C=C\SC(=O)CC1CCCCC1 [Compound 94, N-octyl-cis-3-(cyclohexaneacetylthio)acrylamide] | > 250 | 70 | 90 | 0 |  | 50 | 80 | 85 | 
CCCCCCCCNC(=O)/C=C\SC(=O)c1ccc(Br)o1 [Compound 111, N-octyl-cis-3-[(5-bromo-2-furoyl)thio]acrylamide] | > 250 | 85 | 0 |  |  | 0 | 80 | 0 | 
CCCCCCCCNC(=O)/C=C\SC(=O)c1ccnc2ccccc12 [Compound 95, N-octyl-cis-3-[(4-quinoline)carbonylthio]acrylamide] | > 250 | 95 |  | 0 |  | 50 | 80 | 0 | pest or weed control at 50 ppm ([3]; read-out: % Control RB): 70%
CCCCC/C=C/C(=O)S/C=C\C(=O)NCCCCCCCC [Compound 92, N-octyl-cis-3-[(trans-2-octenoyl)thio]acrylamide] | > 250 | 85 |  | 0 |  |  | 90 |  | pest or weed control at 200 ppm ([3]; read-out: % Control RB): 70%; pest or weed control at 50 ppm [6]: 50%; pest or weed control at 50 ppm [7]: 50%
CCCCCCCCNC(=O)/C=C\SC(=O)C1C=CCC=C1C (stereo not drawn) [Compound 101, N-octyl-cis-3-[(2-methylcyclohexa-2,5-diene)carbonylthio]acrylamide] | > 250 | 50 | 75 |  | 0 | 0 |  | 0 | 
CCCCCCCCNC(=O)/C=C\SC(=O)CCCCCCCC(=O)OC [Compound 117, N-octyl-cis-3-[(8-methoxycarbonyloctanoyl)thio]acrylamide] |  |  | 0 |  | 0 | 0 |  | 0 | MIC Ps.fl (I = inactive) [1]: I; pest or weed control at 50 ppm [2]: 95%
CCCCCCCCNC(=O)/C=C\SC(=O)CCCOc1ccccc1 [Compound 120, N-octyl-cis-3-[(4-phenoxybutanoyl)thio]acrylamide] |  | 90 | 0 |  |  | 0 |  | 0 | MIC Ps.fl (I = inactive) [1]: I; pest or weed control at 50 ppm ([5]; read-out: % Control TLB): 80%
CCCCCCCCNC(=O)/C=C\SC(=O)c1cccc(Cl)c1Cl [Compound 102, N-octyl-cis-3-[(2,3-dichlorobenzoyl)thio]acrylamide] | > 250 | 50 | 50 |  | 0 | 0 |  | 0 | 
CCCCCCCCNC(=O)/C=C\SC(=O)CCCC(=O)OC [Compound 85, N-octyl-cis-3-[(4-methoxycarbonylbutanoyl)thio]acrylamide] | > 250 | 70 | 90 | 0 |  | 80 | 90 | 0 | 
CCCCCCCCNC(=O)/C=C\SC(=O)/C=C/C=C/c1ccccc1 [Compound 109, N-octyl-cis-3-[(trans,trans-5-phenyl-2,4-pentadienoyl)thio]acrylamide] | > 250 | 50 | 0 |  | 0 | 0 |  | 0 | 
CCCCCCCCNC(=O)/C=C\SC(=O)c1ccc(Cl)c(Cl)c1 [Compound 103, N-octyl-cis-3-[(3,4-dichlorobenzoyl)thio]acrylamide] | > 250 | 50 | 50 |  | 0 | 0 |  | 85 | 
CCCCCCCCNC(=O)/C=C\SC(=O)c1ccc(Cl)c([N+](=O)[O-])c1 [Compound 104, N-octyl-cis-3-[(3-nitro-4-chlorobenzoyl)thio]acrylamide] | > 250 | 0 | 50 |  | 0 | 0 |  | 0 | 
CCCCCCCCNC(=O)/C=C\SC(=O)c1cc([N+](=O)[O-])cc([N+](=O)[O-])c1 [Compound 97, N-octyl-cis-3-[(3,5-dinitrobenzoyl)thio]acrylamide] | > 250 |  |  | 0 |  | 0 | 80 |  | pest or weed control at 50 ppm [2]: 0%; pest or weed control at 200 ppm ([3]; read-out: % Control RB): 70%; pest or weed control at 12 ppm [7]: 50%
CCCCCCCCNC(=O)/C=C\SC(=O)CCCCCCCCC(=O)OC [Compound 119, N-octyl-cis-3-[(9-methoxycarbonylnonanoyl)thio]acrylamide] |  | 70 | 50 |  |  | 0 | 80 | 0 | MIC Ps.fl (I = inactive) [1]: I
CCCCCCCCNC(=O)/C=C\SC(=O)c1ccc([N+](=O)[O-])cc1C [Compound 99, N-octyl-cis-3-[(2-methyl-4-nitrobenzoyl)thio]acrylamide] | > 250 | 50 | 75 |  | 0 | 0 |  | 50 | 
